Drawing on a melting point compilation (Tetko et al.; mined from patent text by program, amines drawn as free bases though some values may be those of a salt), this text covers melting point for 90 compounds.

Bounds are passed on as bounds.

Take `O=c1cc(-c2ccccc2)c2c(OCc3nnn[nH]3)cc(OCc3nnn[nH]3)cc2o1`: the melting point was 222 to 224 °C. Turning to `COc1ccc2c(c1)CCC1CCN=C21` (stereo not given), the melting point was 102 to 104 °C.

The compound `CC(C)(C)NS(=O)(=O)c1ccccc1-c1ccc(NC(=O)C(C)(C)Nc2cccc(C#N)c2)cc1` came in with a melting point of 190 to 193 °C. The same measure for `Cc1c(C(=O)N[C@@H](Cc2ccc(OCc3ccoc3)cc2)C(=O)O)oc2cc(-c3ccc(Cl)cc3)ccc12`: 108 to 110 °C; for `Cc1ccc(OCCOCCCCCCNCc2c(CO)ccc(O)c2CO)cc1C`: 65 to 68 °C; for `COC(=O)C(C)(C)Cc1cc2ccc(O)cc2n1C`: 125 to 126 °C. Next, `COc1ccc(-c2nn(Cc3ccc(Cl)cc3Cl)c(=O)cc2-c2ccncc2)cc1`: 151 to 153 °C. The same measure for `Cc1ccc(S(=O)(=O)ON=C2CC(c3ccccc3)c3ccccc32)cc1` (stereo not given): 123 to 127 °C. The compound `CN1Cc2ccccc2[C@H]2c3cccc4[nH]cc(c34)C[C@@H]21` (relative stereo) registered a melting point of 215 °C. In turn, `CC(C)CNc1c(N)c2nnnn2c2cnccc12` gave a melting point of 203 to 204 °C. The same measure for `O=C1CSCc2cc(-c3ccccc3)ccc21`: 87 to 89 °C. Next, `CC(O)(C(=O)O)c1ccc2c(c1)Cc1ccccc1-2` (stereo not given): 164 to 168 °C. The same measure for `COc1ccc2c(c1)S(=O)(=O)NC(C)N2` (stereo not given): 208 to 218 °C. `C=Cc1cc2c(c3ccc(O)cc13)OCc1cc(O)ccc1-2` returned a melting point of over 220 °C.

`CC(C)CCCC(C)C1CCC2C3CC=C4CCCCC4(C)C3CCC12C` (stereo not given) displayed a melting point of 90 to 92 °C. The same measure for `COc1cc(Nc2c(C#N)cnc3cc(-c4ccc(CN5CCOCC5)c(CN5CCOCC5)c4)ccc23)c(Cl)cc1Cl`: 198 to 200 °C; for `CCCCCc1c(C(C)C)nc(C(C)C)c(CO)c1-c1ccc(CC)cc1`: 87 to 88 °C. With `Nc1cc(Cl)nc(SCc2cccc(O)c2)n1`, the melting point was 148 °C. `COCOC1=C(C(N)=O)CC(C#N)(c2ccc(OC)c(OCC3CC3)c2)CC1` (stereo not given) returned a melting point of 120 to 122 °C. As to `Clc1nc(Nc2ccc(OCc3ccccc3)c(Cl)c2)nc(NC2CCCCCC2)n1`, the melting point was found to be 110 °C. The same measure for `O=C(O)c1ccc(F)c2c1OCC=C2`: 187 to 189 °C; for `Cn1c(CCC#Cc2cccc(CF)n2)nc2ccccc21`: 95.3 to 96.3 °C. The same measure for `COC(=O)c1[nH]cnc1CCNC(=O)[C@H](Cc1ccccc1)NC(=O)[C@H](Cc1ccccc1)NC(=O)OC(C)(C)C`: 155 to 159 °C; for `NS(=O)(=O)c1sccc1C(F)=C(F)Cl`: 112 to 116 °C; for `NS(=O)(=O)c1ccc(-n2nc(C(F)F)cc2C2CCCCC2)cc1`: 199 to 203 °C.

Consider `CCCCCCc1cc2c(s1)-n1c(C)nnc1CN=C2c1ccc(C)cc1C`, for which the melting point was 99 to 101 °C. The same measure for `COc1ccc(C(=O)C(Br)CC2CCCCC2)c(OC)c1` (stereo not given): 83 to 89 °C. The same measure for `Cc1nc(C(N)=O)c2n1-c1ccc([N+](=O)[O-])cc1C(c1ccccc1Cl)=NC2`: over 300 °C; for `Cc1cc(C(C)(C)C)cc(C)c1[N+](=O)[O-]`: 80 to 82 °C. Next, `O=C1NC(C(=O)NCCO[N+](=O)[O-])C(c2cccs2)S1` (stereo not given): 120 to 122 °C; `Cc1oc(-c2ccc(S(C)(=O)=O)cc2)c(Oc2ccc(Cl)cc2)c(=O)c1Cl`: 274 °C. In the case of `COc1ccc2c(c1)nc1snc(C(=O)c3ncc(C)c(OC)c3C)n12`, the melting point was in the range of 170 to 171 °C. `CC(=O)COc1ccc(CC2SC(=O)NC2=O)cc1` (stereo not given) yielded a melting point of 158 to 159 °C.

`CC(C)(C)OC(=O)N1CCN(c2ccc(N3C[C@H](CN)OC3=O)cc2F)CC1` returned a melting point of 184 °C. The compound `COc1cc(C)ccc1OC(=O)c1ccccc1` came in with a melting point of 73 to 75 °C. The same measure for `c1ccc(CNc2nccc3ccccc23)cc1`: 101 to 102 °C; for `Cn1cc(C(=O)O)cc1C(=O)c1ccccc1`: 210 to 212 °C. Next, `O=C(NC(CCl)CCOc1ccc(Br)cc1)c1c(F)cccc1F` (stereo not given): 116 to 119 °C; `Cc1ccc(C(=O)c2cccc(C(=O)O)c2)c(O)c1`: 198 to 215 °C; `CCOC(=O)C1=C(NC(=O)Nc2cc(C(=O)OC(C)C)c(Cl)cc2F)CCC1`: 146 to 149 °C. The same measure for `N=C(Nc1ccc2[nH]cc(-c3ccncc3)c2c1)c1cccs1`: 183 to 185 °C; for `NC(=O)c1cnc2n(c1=O)CCC2`: 293 °C.

Consider `COC(=O)c1ccc(CC(C)NCC(O)c2ccccc2Cl)cc1` (stereo not given), for which the melting point fell in the range of 109 to 110 °C. The same measure for `CCCCCC1(C(=O)Oc2ccc(C(=O)O)cc2)CC2=C(C1)C(C)(C)CCC2(C)C`: 156 to 158 °C; for `O=c1cc2c(nn1-c1ccc(Cl)cc1)-c1cc(CO)sc1CCC2`: 118 to 121 °C. Next, `CCc1ccc(C(CC(=O)O)C(=O)O)s1` (stereo not given): 165 to 166 °C; `CC(C)n1nc(-c2nc(C(N)=O)c(N)nc2-c2cccs2)ccc1=O`: 238 to 240 °C. Next, `COCCOc1ccc(-c2sc(N)c(C(=O)c3ccc(Cl)cc3)c2CN(C2CCCCC2)C2CCCCC2)cc1`: 162 to 164 °C; `CSc1ccc(-c2nn(Cc3ccccc3)c(=O)cc2-c2ccccc2)cc1`: 157 to 158 °C. Turning to `CCCCCCCCC1COC(c2ccc(O)cc2)OC1` (stereo not given), the melting point lay in the range of 96 to 97 °C. The same measure for `COC(=O)C1=C(N)NC(C)=C([N+](=O)[O-])C1c1ccccc1S(=O)(=O)CCCCCl` (stereo not given): 218 °C; for `C=C(COc1ccccc1C=NO)c1ccccc1`: 61 to 62 °C. The same measure for `Cc1ccc2c3c(ccc2n1)OC[C@H](CN1CCN(c2ccc(C)c(C)c2)CC1)O3`: 118 to 120 °C; for `CCOc1c(C#N)sc(NC(C)=O)c1C#N`: 267 to 268 °C; for `CCOC=C(C(=O)CCl)C(=O)OCC`: 86.5 °C.

Take `CC(C)OC(=O)C(C)NC(=O)C(N)(CC(=O)O)NC(=O)C(C)C` (stereo not given): the melting point was in the range of 176 to 178 °C. The same measure for `Cn1nc(-c2c(Cl)cc(C(F)(F)F)cc2Cl)c([N+](=O)[O-])c1N`: 107 to 108 °C; for `COc1ccc([C@]2(O)OCC(C)(C)N[C@H]2C)cc1`: 170 to 172 °C. For `Cn1c(-c2ccccc2)cc2cc(N)ccc21`, the melting point was 108 to 110 °C.

For the compound `COC(=O)/C=C(\C)c1ccc(OCc2nc(-c3ccccc3)oc2C)cc1`, the melting point is 125 to 126 °C.

Compound `O=[N+]([O-])c1c(F)cc(N2CCOCC2)cc1F` had a melting point of 112 to 114 °C. On to `O=C1CCc2cc(Cl)c([N+](=O)[O-])cc21`, for which the melting point was 110 to 113 °C. Next, `COc1ccc2cccc(C(=O)C(=O)O)c2c1`: 99 °C; `CCOC(=O)C(Cl)=NNc1ccc(Cl)cc1`: 145 to 148 °C. The same measure for `CC(C)(C)OC(=O)N[C@H]1CCN(c2nc3c(cc2F)c(=O)[nH]c(=O)n3C2CC2)C1`: 220 to 222 °C.

For the compound `CCn1ncc2nc(C#N)c(OCCC(C)C)nc21`, the melting point was in the range of 78 to 80 °C. Next, `COC(=O)c1cccc(C[C@H](N)C(=O)O)c1`: over 200 °C. The same measure for `O=c1c2ncn(C3OC(COC(c4ccccc4)(c4ccccc4)c4ccccc4)C(O)C3O)c2ncn1Cc1ccccc1` (stereo not given): 208 to 209 °C; for `C[C@@H]1CN(CC(=O)Nc2nccc3ccccc23)C[C@H](C)N1c1ncnc2sccc12`: 206 to 207 °C; for `CC1(C)CC(=O)C2=C(C1)NC1=C(C(=O)CC(C)(C)C1)C2c1cccc(-n2ccnc2)c1`: 286 to 288 °C. The compound `CCCCc1nc2c(N)nc(C)c(C)c2n1CC(C)(C)NC(=O)c1ccccc1` gave a melting point of 150 to 152 °C. Next, `CCOc1ccc(-c2ccc3c(c2)C=C(C(=O)Nc2ccc(CN(C)C4CCOCC4)cc2)CCN3C=O)cc1F`: 193 to 196 °C; `CCCN(C(=O)C(F)(F)F)c1ccc(I)cc1`: 177 to 179 °C; `O=S(=O)(c1ccccc1)N1C[C@@H](c2c[nH]c3ccccc23)[C@H](c2cn3c4c(cccc24)CCC3)C1`: 115 to 125 °C.

The compound `Cc1cc(C(N)=O)ncc1C(c1c(F)ccc(F)c1F)S(=O)(=O)c1ccc(OC(F)(F)F)cc1` (stereo not given) yielded a melting point of 219 to 220 °C. Next, `NC(=O)NCc1ccc(CNC(=O)[C@@H](CCCNC(N)=N[N+](=O)[O-])NC(=O)Nc2cccc3ccccc23)cc1`: 210 °C; `CNC(=O)N(O)C(C)C#CCCc1ccccc1` (stereo not given): 121 to 123 °C. Next, `COc1cc(C=C2CCN(C(=O)NOCc3ccccc3)C2=O)cc(OC)c1O`: 167 to 170 °C; `COC(=O)c1cc(Cl)cnc1N`: 139 to 140 °C; `CC(C)C1(C)N=C(c2c(C(=O)O)ccc3c2nnn3C)NC1=O` (stereo not given): 250 to 254 °C. The same measure for `OCc1ccc(-c2nn(Cc3ccccc3)c3ccccc23)cc1`: 110 to 112 °C. On to `O=C(c1cc(O)ccc1Nc1ccncc1)N1CCCCC1`, for which the melting point was in the range of 242 to 243 °C.

In turn, `CCOC(=O)NNC(=O)NCCCl` gave a melting point of 118 to 120 °C. Next, `COc1cc2nc(OC)n3cnnc3c2cc1OC`: 245 to 250 °C. `COC(=O)CCC(C#N)(CCC(=O)OC)c1ccc(OC)c(OC)c1` came in with a melting point of 72 to 73 °C. As for `Cn1cc(-c2cc3cccnc3[nH]2)c2ccc(C(=O)NCCC(N)=O)cc21`, the melting point was in the range of 277 to 280 °C.

`COc1ccc2cnc(Cl)nc2c1C(C)C` showed a melting point of 135 to 137 °C. The same measure for `N#CC(C(=O)Nc1ccccc1)C(=O)c1nn(-c2ccccc2)c2c1CSc1ccc(NC(=O)CN)cc1-2` (stereo not given): 218 to 221 °C; for `COc1ccc(Cn2c(C)cc3cn[nH]c(=O)c32)cc1`: 212 to 213 °C; for `CCOC(=O)CSC(=S)N1Cc2[nH]c3ccccc3c2CC1C(=O)O` (stereo not given): 190 to 192 °C.
